The results in this text go back to patent US11174464B2, “Method for preparing osteoblasts and osteoblast inducer” (KYOTO PREFECTURAL PUBLIC UNIVERSITY CORPORATION, priority 2014, dated 2021).

Each structure is given as a SMILES string.

The test system of test [1] is normal human dermal fibroblast (HDF) strain. Description: Alizarin Red S staining of calcified bone matrix in fibroblasts cultured in induction medium. To be noted: for Alizarin Red S staining intensity (OD 550-650 nm), ability to produce calcified matrix: 28 days (FIG. 10); for Alizarin Red S staining images and intensity (OD 550-650 nm), ability to produce calcified matrix: 28 days (FIG. 19).

A further test deals with human osteocalcin (OC). Description: Real-time RT-PCR of osteocalcin (OC) mRNA in cultured HDF. The class given is cell-based. To be noted: 5% human serum induction medium, 28 days (FIG. 16).
For a further test, the system named is human Runx2 gene. Description: Real-time RT-PCR of Runx2 mRNA in cultured HDF. The class given is cell-based. Conditions: induction medium, 28 days (FIG. 17). In general terms: In qPCR the cycle at which signal appears reflects the starting amount.
Test [2] relates to human alkaline phosphatase (ALP) gene. Description: Real-time RT-PCR of ALP mRNA in cultured HDF. The class given is cell-based. Conditions: 10% FBS induction medium, 28 days, relative to normal human fibroblasts = 1 (FIG. 13). The protocol:
Then, total RNA was collected from the cells using ISOGEN II, and cDNA was synthesized using ReverTra Ace qPCR RT Master Mix. Real-time PCR Master Mix, TaqMan probes, specific primers, and cDNA were mixed, and real-time RT-PCR was performed using an AB7300 Real-Time PCR System to quantify the mRNA of Runx2, osteocalcin (OC), and alkaline phosphatase (ALP) genes. […] Further, RNA was harvested from human osteoblasts, and the same analysis was performed.
The culture was performed as in “2-1” above by adding the stated compounds.
Then, total RNA was collected from the cells using ISOGEN II, and cDNA was synthesized using ReverTra Ace qPCR RT Master Mix. Real-time PCR Master Mix, and a TaqMan probe and primers specific to a human alkaline phosphatase (ALP) gene were added, and real-time RT-PCR was performed using an AB7300 Real-Time PCR System. Furthermore, total RNA was extracted from osteoblasts from normal human bone, and analysis was performed in a similar manner.
Furthermore, total RNA was extracted from osteoblasts from normal human bone, and analysis was performed in a similar manner.
Twenty-eight days after the culture, the mRNA expression of ALP gene in the cells in each well was analyzed by real-time RT-PCR, as in “2-3” above. Furthermore, total RNA was extracted from osteoblasts from normal human bone, and analysis was performed in a similar manner.

Test [3] has as its system Normal human white preadipocytes (HWPs). Description: Alizarin Red S staining, induction from normal human white preadipocytes. The class given is cell-based. To be noted: induction medium with 10% FBS, 21 days (FIG. 23).

Procedure for human Runx2 gene: The culture was performed as in “1” above by adding the stated compounds.
Then, total RNA was collected from the cells using ISOGEN II, and cDNA was synthesized using ReverTra Ace qPCR RT Master Mix. Real-time PCR Master Mix, and a TaqMan probe and primers specific to human Runx2 gene were added, and real-time RT-PCR was performed using an AB7300 Real-Time PCR System.
Procedure for human osteocalcin (OC): The culture was performed as in “2-6” above by adding the stated compounds.
Then, total RNA was collected from the cells using ISOGEN II, and cDNA was synthesized using ReverTra Ace qPCR RT Master Mix. Real-time PCR Master Mix, and a TaqMan probe and primers specific to human osteocalcin (OC) were added, and real-time RT-PCR was performed using an AB7300 Real-Time PCR System.

Turning to `CC(C)c1nc(N(C)S(C)(=O)=O)nc(-c2ccc(F)cc2)c1/C=C/[C@@H](O)C[C@@H](O)CC(=O)O` [RS, rosuvastatin], the “Alizarin Red S staining intensity (OD 550-650 nm), ability to produce calcified matrix” value in test [1] (induction medium with 10% FBS) was “induced the ability to produce calcified matrix”. In the test with human osteocalcin (OC), the “osteocalcin (OC) mRNA expression by real-time RT-PCR” value was “induced the mRNA expression of osteocalcin”. Moreover, the “Runx2 mRNA expression by real-time RT-PCR” value (from here on “Runx2 mRNA expression”) in the test on human Runx2 gene is “induced the mRNA expression of Runx2 gene”. In addition, the “ALP mRNA expression by real-time RT-PCR” value in test [2] is given as “induced the mRNA expression of ALP gene”.
As for `CC(C)c1c(C(=O)Nc2ccccc2)c(-c2ccccc2)c(-c2ccc(F)cc2)n1CC[C@@H](O)C[C@@H](O)CC(=O)O` [AS, atorvastatin], in test [1] (induction medium with 10% FBS), the “Alizarin Red S staining intensity (OD 550-650 nm), ability to produce calcified matrix” value is listed as “induced the ability to produce calcified matrix”. The “Runx2 mRNA expression” value in the test on human Runx2 gene was “induced the mRNA expression of Runx2 gene”. Moreover, in test [2], the “ALP mRNA expression by real-time RT-PCR” value is listed as “induced the mRNA expression of ALP gene”.
On to `O=C(O)c1ccc2c(c1)nc(Nc1cccc(Cl)c1)c1ccncc12` [CX-4945], for which the “Alizarin Red S staining images and intensity (OD 550-650 nm), ability to produce calcified matrix” value in test [1] was “no effect”.
Same read-out and setting: next, `Nc1nccc2c1ncn2[C@@H]1C=C(CO)[C@@H](O)[C@H]1O` [DZNep, 3-deazaneplanocin A]: “induced the ability to produce calcified matrix”.
Take `CC[C@H](C)C(=O)O[C@H]1C[C@@H](C)C=C2C=C[C@H](C)[C@H](CC[C@@H]3C[C@@H](O)CC(=O)O3)[C@H]21` [LS, lovastatin]: the “Alizarin Red S staining intensity (OD 550-650 nm), ability to produce calcified matrix” value in test [1] (induction medium with 10% FBS) is reported as “induced the ability to produce calcified matrix”. Also, in the test with human Runx2 gene, the “Runx2 mRNA expression” value is on record as “induced the mRNA expression of Runx2 gene”. The “ALP mRNA expression by real-time RT-PCR” value in test [2] is reported as “induced the mRNA expression of ALP gene”.
Regarding `NC(=O)c1ccc(-c2nc(-c3ccc4c(c3)OCCO4)c(-c3ccccn3)[nH]2)cc1` [D4476, 4-[4-(2,3-dihydro-1,4-benzodioxin-6-yl)-5-(2-pyridinyl)1H-imidazol-2-yl]-benzamide], the “Alizarin Red S staining images and intensity (OD 550-650 nm), ability to produce calcified matrix” value in test [1] was “induced the ability to produce calcified matrix”. Moreover, the “Alizarin Red S staining images and intensity, ability to produce calcified matrix” value is reported as “induced a higher ability to produce calcified matrix” in test [1] (induction medium with 5% human serum, 28 days (FIG. 12)) and “induced the ability to produce calcified matrix” in test [1] (induction medium with 10% FBS, 28 days (FIG. 11)). Moreover, in test [1] (induction medium with 10% FBS), the “Alizarin Red S staining intensity (OD 550-650 nm), ability to produce calcified matrix” value was “induced the ability to produce calcified matrix”. In test [3], the “Alizarin Red S staining images, ability to produce calcified matrix” value is reported as “strongly induced the ability to produce calcified matrix”. Moreover, the “ALP mRNA expression by real-time RT-PCR” value in test [2] was “induced the mRNA expression of ALP gene”.
